The subject of this assay is Plasmodium berghei. Kind of assay: Luciferase/luciferin-expressing antifolate-resistant parasites were used to infect a culture of HepG2 cells that were pre-incubated with compounds. Infected hepatocytes emit light due to the luciferase reaction. Assay results are presented as the percent inhibition of light emission compared to control. […]. Type of assay: functional. Conditions: sporozoite; for IC90: read-out: LUCIFERASE INFECTION ASSAY - IC90.

The mark [1] stands for this setting: read-out: LUCIFERASE INFECTION ASSAY - IC50.

The text below walks through data of ChEMBL document CHEMBL4483862, “Open-source discovery of chemical leads for next-generation chemoprotective antimalarials” (2018).

Some results are limits rather than exact numbers.

One may read the IC50 as the point on the concentration scale where inhibition reaches its midpoint. The term IC90 denotes the point of the concentration-response curve where the effect stands at 90%. Turning to `COc1ccc(OC)c(C(=O)/C=C/c2cc(Br)cs2)c1`, the IC90 was found to be 5.17 µM. For the same compound, the IC50 (HEPG2TOX_HILL_SLOPE 14.7, HEPG2TOX_R_SQUARED 0.849, PBLUC_HILL_SLOPE 92.6, PBLUC_R_SQUARED 0.363, read-out: LUCIFERASE INFECTION ASSAY - IC50) was 5.05 µM.

`CCOC(=O)c1sc2ncn(-n3c(C)ccc3C)c(=O)c2c1C`: the IC90 turned out to be 7.62 µM. The IC50 (PBLUC_HILL_SLOPE 2.28, PBLUC_R_SQUARED 0.71, read-out: LUCIFERASE INFECTION ASSAY - IC50) was found to be 2.9 µM.

As to `NS(=O)(=O)c1ccc(CCNc2nn3c(-c4cccs4)cnc3s2)cc1`, the IC90 is greater than 8.14 µM. The IC50 (HEPG2TOX_HILL_SLOPE 6.48, HEPG2TOX_R_SQUARED 0.0577, read-out: LUCIFERASE INFECTION ASSAY - IC50) was greater than 8.14 µM. For the compound `Cc1ccc(C(=O)CCC(=O)NCc2ccccc2)s1`, the IC90 is greater than 10 µM. The IC50 under setting [1] was greater than 10 µM.

As for `COc1ccc(CN2C(=O)N(C)C3(CCN(Cc4ccc(N5CCCC5)cc4)CC3)C2=O)cc1`, the IC90 is greater than 7.13 µM. Under “HEPG2TOX_HILL_SLOPE 9.02, HEPG2TOX_R_SQUARED 0.802, PBLUC_HILL_SLOPE 4.22, PBLUC_R_SQUARED 0.106, read-out: LUCIFERASE INFECTION ASSAY - IC50”, the IC50 came to 5.16 µM.

As to `CC1CN(S(=O)(=O)NCC(c2ccccc2Cl)c2c[nH]c3ccccc23)CC(C)O1` (stereo not given), the concentration for an effect of 90% (IC90) is greater than 10 µM. The IC50 under setting [1] is greater than 10 µM. Take `O=C(NCc1ccc(C(F)(F)F)cc1)Nc1cccc2cnccc12`: the 90% effect concentration (IC90) was greater than 10 µM. In addition, the IC50 (HEPG2TOX_HILL_SLOPE 1.51, HEPG2TOX_R_SQUARED 0.691, read-out: LUCIFERASE INFECTION ASSAY - IC50) is greater than 10 µM. As to `CN(C)CCNc1ccnc2c(-c3ccccc3F)cnn12`, the IC90 worked out at 1.46 µM. For the same compound, the IC50 (FFLUC_HILL_SLOPE 9.41, FFLUC_R_SQUARED 0.56, PBLUC_HILL_SLOPE 1.12, PBLUC_R_SQUARED 0.894, read-out: LUCIFERASE INFECTION ASSAY - IC50) came out at 0.204 µM.

As to `OCC1CCCN(c2nn3cc(-c4ccccc4)nc3s2)C1` (stereo not given), the IC90 came out at 0.00758 µM. For `Cc1nc(SCC(=O)c2cc(C)n(-c3ccccc3)c2C)c2ccsc2n1`, the IC90 is greater than 10 µM. Under setting [1], the IC50 is greater than 10 µM.

Consider `Cc1nc(Sc2nnnn2C)c2c3c(sc2n1)CCC3`, for which the 90% effect concentration (IC90) is 4.17 µM. Further, the IC50 (HEPG2TOX_HILL_SLOPE 11.4, HEPG2TOX_R_SQUARED 0.852, PBLUC_HILL_SLOPE 13, PBLUC_R_SQUARED 0.536, read-out: LUCIFERASE INFECTION ASSAY - IC50) amounted to 3.52 µM. `Cc1c(C(=O)OCc2ccccc2C(F)(F)F)sc2ncn(C)c(=O)c12`: the concentration for an effect of 90% (IC90) was greater than 10 µM. Besides, the IC50 under setting [1] worked out at 8.3 µM. As to `S=c1sc(Nc2ccc(Oc3ccccc3)cc2)nn1CN1CCN(c2ncccn2)CC1`, the IC90 was greater than 10 µM. For the same compound, the IC50 (PBLUC_HILL_SLOPE 0.972, PBLUC_R_SQUARED 0.697, read-out: LUCIFERASE INFECTION ASSAY - IC50) is 3.61 µM.

`Cc1c(C(=O)Nc2ccc(Oc3ccccc3)cc2)cnn1C`: the IC90 was greater than 10 µM. Moreover, the IC50 (HEPG2TOX_HILL_SLOPE 1.34, HEPG2TOX_R_SQUARED 0.933, PBLUC_HILL_SLOPE 3.41, PBLUC_R_SQUARED 0.294, read-out: LUCIFERASE INFECTION ASSAY - IC50) came out at 7.03 µM. In the case of `CCn1c(=O)c(=O)[nH]c2cc(C(=O)Nc3ccc(Oc4ccccc4)cc3)ccc21`, the IC90 is greater than 10 µM. The IC50 under setting [1] is greater than 10 µM. As for `COc1ccc(-c2cc(CN3C(=O)N(C)C4(CCCCC4)C3=O)on2)cc1`, the IC90 is greater than 10 µM. Moreover, under “HEPG2TOX_HILL_SLOPE 0.667, HEPG2TOX_R_SQUARED 0.327, read-out: LUCIFERASE INFECTION ASSAY - IC50”, the IC50 is greater than 10 µM. As for `CSc1sc(C(=O)NN=C(C)C)c2c1C(O)CCC2` (stereo not given), the 90% effect concentration (IC90) is greater than 11.1 µM. Further, the IC50 (HEPG2TOX_HILL_SLOPE 6.67, HEPG2TOX_R_SQUARED 0.767, PBLUC_HILL_SLOPE 1.8, PBLUC_R_SQUARED 0.584, read-out: LUCIFERASE INFECTION ASSAY - IC50) was 10.2 µM.

On to `COc1ccc(OCCN2CCN(c3ccnc4cc(Cl)ccc34)CC2)cc1`, for which the IC90 was greater than 10 µM. In addition, the IC50 (HEPG2TOX_HILL_SLOPE 3.33, HEPG2TOX_R_SQUARED 0.981, PBLUC_HILL_SLOPE 2.57, PBLUC_R_SQUARED 0.319, read-out: LUCIFERASE INFECTION ASSAY - IC50) stood at 5.62 µM.

As for `CCSc1ncc(-c2nnnn2-c2ccccc2)c(-c2ccccc2)n1`, the IC90 is greater than 9.16 µM. Further, for the setting “FFLUC_HILL_SLOPE 12.6, FFLUC_R_SQUARED 0.17, read-out: LUCIFERASE INFECTION ASSAY - IC50”, the IC50 was greater than 9.16 µM. As to `CNc1nc2cnc(Nc3ccc(OC(C)C)cc3)cc2n1-c1cc(OC)c(OC)c(OC)c1`, the IC90 is greater than 10 µM. Besides, the IC50 (PBLUC_HILL_SLOPE 1.37, PBLUC_R_SQUARED 0.322, read-out: LUCIFERASE INFECTION ASSAY - IC50) stood at 5.86 µM.

Turning to `Fc1cccc(-c2nc3ccnc(Nc4cccc(Oc5ccccc5)c4)c3[nH]2)c1`, the IC90 amounted to 8.85 µM. For the same compound, the half-inhibitory concentration (IC50) (HEPG2TOX_HILL_SLOPE 4.02, HEPG2TOX_R_SQUARED 0.911, PBLUC_HILL_SLOPE 2.5, PBLUC_R_SQUARED 0.399, read-out: LUCIFERASE INFECTION ASSAY - IC50) is 3.68 µM. In the case of `CC1=CC(C)(C)N2C(=O)C3(NCCc4c3[nH]c3ccccc43)c3cc(C)cc1c32` (stereo not given), the IC90 worked out at 3.21 µM. In addition, the IC50 (HEPG2TOX_HILL_SLOPE 3.19, HEPG2TOX_R_SQUARED 0.903, PBLUC_HILL_SLOPE 11.5, PBLUC_R_SQUARED 0.604, read-out: LUCIFERASE INFECTION ASSAY - IC50) came to 2.66 µM. For the compound `Cc1ccc(Nc2ccc(-c3nc4ccccc4[nH]3)cn2)cc1C`, the IC90 is 4.25 µM. Moreover, the 50% inhibitory concentration (IC50) (HEPG2TOX_HILL_SLOPE 3.79, 0.829, HEPG2TOX_R_SQUARED 0.701, 0.968, PBLUC_HILL_SLOPE 2.85, 14.2, PBLUC_R_SQUARED 0.393, 0.513, read-out: LUCIFERASE INFECTION ASSAY - IC50) was 2.27 µM.

With `Cc1cc(N)c(N)cc1C`, the IC90 stood at 6.18 µM. For the same compound, the IC50 (PBLUC_HILL_SLOPE 0.927, PBLUC_R_SQUARED 0.706, read-out: LUCIFERASE INFECTION ASSAY - IC50) was 0.577 µM. In the case of `CC(C)c1cccc(-c2ccc3nnc(-c4cccc(Cl)c4)n3c2)c1`, the IC90 was greater than 10 µM. Also, for the setting “PBLUC_HILL_SLOPE 4.48, PBLUC_R_SQUARED 0.207, read-out: LUCIFERASE INFECTION ASSAY - IC50”, the IC50 turned out to be 6.48 µM. Take `Cc1ccc2nc(NC(=O)c3cc(F)c(F)cc3F)c(C(=O)NC3CCCC3)n2c1`: the concentration for an effect of 90% (IC90) came out at 2.75 µM. Also, where the note is “HEPG2TOX_HILL_SLOPE 1.15, HEPG2TOX_R_SQUARED 0.906, PBLUC_HILL_SLOPE 3.53, PBLUC_R_SQUARED 0.394, read-out: LUCIFERASE INFECTION ASSAY - IC50”, the IC50 was 1.47 µM. For `Cc1ccc(-n2c(Sc3ccc([N+](=O)[O-])c4cnccc34)nnc2-c2ccccc2)cc1C`, the IC90 was greater than 10 µM. Moreover, under “HEPG2TOX_HILL_SLOPE 0.296, HEPG2TOX_R_SQUARED 0.243, PBLUC_HILL_SLOPE 1.34, PBLUC_R_SQUARED 0.0191, read-out: LUCIFERASE INFECTION ASSAY - IC50”, the IC50 was greater than 10 µM. `O=C(Nc1cccc(S(=O)(=O)Nc2ccc(Cl)cc2)c1)c1[nH]nc2ccccc12`: the IC90 was greater than 10 µM. In addition, the IC50 under setting [1] is 8.98 µM.

Take `c1ccc2cc(-c3cnc4sc(NCc5ccncc5)nn34)ccc2c1`: the IC90 is greater than 9.23 µM. In addition, the IC50 under setting [1] is greater than 9.23 µM. In the case of `C=CCSc1nnc(-c2ccc(C(C)(C)C)cc2)n1-c1ccc(C(C)C)cc1`, the IC90 is greater than 8.43 µM. Further, the IC50 (HEPG2TOX_HILL_SLOPE 6.39, HEPG2TOX_R_SQUARED 0.425, PBLUC_HILL_SLOPE 3, PBLUC_R_SQUARED 0.616, read-out: LUCIFERASE INFECTION ASSAY - IC50) is greater than 8.43 µM. Consider `NC(=O)c1ccsc1NC(=O)Cc1ccc(-c2ccccc2)cc1`, for which the IC90 was 3.7 µM. For the same compound, where the note is “PBLUC_HILL_SLOPE 3.68, PBLUC_R_SQUARED 0.581, read-out: LUCIFERASE INFECTION ASSAY - IC50”, the IC50 came to 2.04 µM. With `O=C1C=CC(=O)N1c1ccc2c(c1)OCCO2`, the concentration for an effect of 90% (IC90) was greater than 14.3 µM. In addition, the half-inhibitory concentration (IC50) under setting [1] was greater than 14.3 µM. With `CC(=O)c1sc(SCCS(=O)(=O)c2ccc(Cl)cc2)c2c1CCCC2=O`, the IC90 was greater than 7.69 µM. Further, where the note is “HEPG2TOX_HILL_SLOPE 4.99, HEPG2TOX_R_SQUARED 0.387, PBLUC_HILL_SLOPE 14.8, PBLUC_R_SQUARED 0.11, read-out: LUCIFERASE INFECTION ASSAY - IC50”, the IC50 is greater than 7.69 µM. With `CC(NC(=O)CN1CCCc2c(F)cc(F)cc21)c1ccco1` (stereo not given), the 90% effect concentration (IC90) is greater than 10 µM. Further, the IC50 under setting [1] was greater than 10 µM. Regarding `CN(C)c1ccc(-c2cnc3cnc(-c4ccc(CO)cc4)cn23)cc1`, the IC90 was greater than 9.58 µM. Moreover, the 50% inhibitory concentration (IC50) (HEPG2TOX_HILL_SLOPE 1.55, HEPG2TOX_R_SQUARED 0.978, PBLUC_HILL_SLOPE 1.15, PBLUC_R_SQUARED 0.872, read-out: LUCIFERASE INFECTION ASSAY - IC50) turned out to be 1.58 µM. For the compound `CCN(C(=O)CSc1nnc(SCC(=O)N(CC)C2CCCCC2)s1)C1CCCCC1`, the IC90 is greater than 10 µM. Besides, under setting [1], the IC50 was greater than 10 µM. As to `O=C(CSCCS(=O)(=O)c1ccc(Cl)cc1)Nc1cc(C(F)(F)F)cc(C(F)(F)F)c1`, the concentration for an effect of 90% (IC90) is greater than 6.52 µM. Further, where the note is “FFLUC_HILL_SLOPE 10.6, FFLUC_R_SQUARED 0.485, read-out: LUCIFERASE INFECTION ASSAY - IC50”, the IC50 is greater than 6.52 µM. As for `Clc1ccc(OC2OCCOC2Oc2ccc(Cl)cc2Cc2ccccc2)c(Cc2ccccc2)c1` (stereo not given), the IC90 was greater than 10 µM. In addition, the IC50 under setting [1] was greater than 10 µM.
